# Data from PubChem BioAssay (NCI).
#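 In this assay, cells in 96-well plates receive the compound at five concentrations for 48 hours. Endpoints are linearly interpolated between the surrounding concentrations. GI50 marks 50% less growth. TGI denotes the concentration required for complete inhibition of growth.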
# Experiments:
# Test in all cases: inhibition of tumour cell growth, NCI panel, 48 h
# [1] = system: NCI-H522 lung
# [2] = system: A498 renal
# [3] = system: K-562 leukemia
# [4] = system: PC-3 prostate
# [5] = system: RPMI-8226 leukemia
# [6] = system: LOX IMVI melanoma
# [7] = system: SF-539 CNS
# [8] = system: HCC-2998 colon
# [9] = system: IGROV1 ovarian
# [10] = system: NCI-H460 lung
# [11] = system: SR leukemia
# [12] = system: SNB-19 CNS
# [13] = system: HT29 colon
# [14] = system: OVCAR-8 ovarian
# [15] = system: NCI/ADR-RES ovarian
# [16] = system: HOP-62 NSCLC
# [17] = system: UO-31 renal
# [18] = system: KM12 colon
# [19] = system: HCT-116 colon
# [20] = system: MDA-MB-231 breast
# [21] = system: OVCAR-3 ovarian
# [22] = system: SF-295 CNS
# [23] = system: SK-OV-3 ovarian
# [24] = system: SK-MEL-2 melanoma
# [25] = system: MALME-3M melanoma
# [26] = system: CCRF-CEM leukemia
# [27] = system: SK-MEL-5 melanoma
# [28] = system: SF-268 CNS
# [29] = system: BT-549 breast
# [30] = system: A549 NSCLC
# [31] = system: HCT-15 colon
# [32] = system: SN12C renal
# [33] = system: M14 melanoma
# [34] = system: HL-60(TB) leukemia
# [35] = system: U251 CNS
# [36] = system: 786-0 renal
# [37] = system: HOP-92 NSCLC
# [38] = system: HS 578T breast
# [39] = system: UACC-257 melanoma
# [40] = system: SNB-75 CNS
# [41] = system: OVCAR-5 ovarian
# [42] = system: UACC-62 melanoma
# [43] = system: MDA-MB-435
# [44] = system: TK-10 renal
# [45] = system: EKVX NSCLC
# [46] = system: SW-620 colon
# [47] = system: SK-MEL-28 melanoma
# [48] = system: T-47D breast
# [49] = system: NCI-H23 lung
# [50] = system: DU-145 prostate
# [51] = system: NCI-H226 lung
# [52] = system: CAKI-1 renal
# [53] = system: OVCAR-4 ovarian
# [54] = system: RXF 393 renal
# [55] = system: COLO 205 colon
# [56] = system: ACHN renal
# [57] = system: MCF7 breast
# [58] = system: MOLT-4 leukemia
# [59] = system: MDA-N
compound,measurement,setting,value
Cc1ccc(Cl)cc1Nc1nc(C(F)(F)F)ccc1C(=O)Nc1cccc(C(F)(F)F)c1,GI50,[1],1780 nM
same,TGI,[1],6.37 µM
same,GI50,[2],2970 nM
same,TGI,[2],8.59 µM
same,GI50,[3],3.59 µM
same,TGI,[3],> 100 µM
same,GI50,[4],2070 nM
same,TGI,[4],13.4 µM
same,GI50,[5],2340 nM
same,TGI,[5],12.6 µM
same,GI50,[6],3.73 µM
same,TGI,[6],13.2 µM
same,GI50,[7],3.95 µM
same,TGI,[7],14.1 µM
same,GI50,[8],1780 nM
same,TGI,[8],4.46 µM
same,GI50,[9],1690 nM
same,TGI,[9],13.4 µM
same,GI50,[10],2790 nM
same,TGI,[10],10.1 µM
same,GI50,[11],3.41 µM
same,TGI,[11],30.3 µM
same,GI50,[12],3.59 µM
same,TGI,[12],14.6 µM
same,GI50,[13],2820 nM
same,TGI,[13],12.8 µM
same,GI50,[14],3.62 µM
same,TGI,[14],15.8 µM
same,GI50,[15],2130 nM
same,TGI,[15],7.66 µM
same,GI50,[16],2690 nM
same,TGI,[16],10.3 µM
same,GI50,[17],2840 nM
same,TGI,[17],12.7 µM
same,GI50,[18],3.12 µM
same,TGI,[18],12.8 µM
same,GI50,[19],2390 nM
same,TGI,[19],10.3 µM
same,GI50,[20],2290 nM
same,TGI,[20],9.63 µM
same,GI50,[21],4.18 µM
same,TGI,[21],20.1 µM
same,GI50,[22],3.65 µM
same,TGI,[22],18.4 µM
same,GI50,[23],1740 nM
same,TGI,[23],5.47 µM
same,GI50,[24],2450 nM
same,TGI,[24],6.58 µM
same,GI50,[25],3.04 µM
same,TGI,[25],12.4 µM
same,GI50,[26],2800 nM
same,TGI,[26],11 µM
same,GI50,[27],2180 nM
same,TGI,[27],4.5 µM
same,GI50,[28],3.59 µM
same,TGI,[28],13.8 µM
same,GI50,[29],3.56 µM
same,TGI,[29],13.3 µM
same,GI50,[30],2930 nM
same,TGI,[30],11.7 µM
same,GI50,[31],3.67 µM
same,TGI,[31],14.9 µM
same,GI50,[32],4.29 µM
same,TGI,[32],18.7 µM
same,GI50,[33],2990 nM
same,TGI,[33],10.3 µM
same,GI50,[34],3.61 µM
same,TGI,[34],10.5 µM
same,GI50,[35],3.68 µM
same,TGI,[35],14.5 µM
same,GI50,[36],3.16 µM
same,TGI,[36],11.8 µM
same,GI50,[37],2200 nM
same,TGI,[37],8.69 µM
same,GI50,[38],4.66 µM
same,TGI,[38],20 µM
same,GI50,[39],2930 nM
same,TGI,[39],8.35 µM
same,GI50,[40],3.11 µM
same,TGI,[40],12.3 µM
same,GI50,[41],2590 nM
same,TGI,[41],11.4 µM
same,GI50,[42],5.22 µM
same,TGI,[42],17.1 µM
same,GI50,[43],3.61 µM
same,TGI,[43],13.9 µM
same,GI50,[44],5.58 µM
same,TGI,[44],17.8 µM
same,GI50,[45],2700 nM
same,TGI,[45],10.9 µM
same,GI50,[46],4.55 µM
same,TGI,[46],19.1 µM
same,GI50,[47],4.55 µM
same,TGI,[47],18.3 µM
same,GI50,[48],2230 nM
same,TGI,[48],8.95 µM
same,GI50,[49],2630 nM
same,TGI,[49],11.9 µM
same,GI50,[50],4.76 µM
same,TGI,[50],16.6 µM
same,GI50,[51],6 µM
same,TGI,[51],25.5 µM
same,GI50,[52],4.14 µM
same,TGI,[52],18.1 µM
same,GI50,[53],3.58 µM
same,TGI,[53],17.8 µM
same,GI50,[54],2700 nM
same,TGI,[54],7.92 µM
same,GI50,[55],1720 nM
same,TGI,[55],3.36 µM
same,GI50,[56],2950 nM
same,TGI,[56],12.8 µM
same,GI50,[57],2490 nM
same,TGI,[57],9.5 µM
same,GI50,[58],2770 nM
same,TGI,[58],10 µM
OC1CCCC1C(O)(C(F)(F)F)C(F)(F)F (centres undefined),TGI,[1],> 100 µM
same,TGI,[2],> 100 µM
same,TGI,[3],> 100 µM
same,TGI,[4],> 100 µM
same,TGI,[5],> 100 µM
same,TGI,[6],> 100 µM
same,TGI,[7],> 100 µM
same,TGI,[8],> 100 µM
same,TGI,[9],> 100 µM
same,TGI,[10],> 100 µM
same,TGI,[11],> 100 µM
same,TGI,[12],> 100 µM
same,TGI,[13],> 100 µM
same,TGI,[14],> 100 µM
same,TGI,[15],> 100 µM
same,TGI,[16],> 100 µM
same,TGI,[17],> 100 µM
same,TGI,[18],> 100 µM
same,TGI,[19],> 100 µM
same,TGI,[20],> 100 µM
same,TGI,[21],> 100 µM
same,TGI,[22],> 100 µM
same,TGI,[23],> 100 µM
same,TGI,[24],> 100 µM
same,TGI,[25],> 100 µM
same,TGI,[26],> 100 µM
same,TGI,[27],> 100 µM
same,TGI,[28],> 100 µM
same,TGI,[30],> 100 µM
same,TGI,[31],> 100 µM
same,TGI,[32],> 100 µM
same,TGI,[33],> 100 µM
same,TGI,[34],> 100 µM
same,TGI,[35],> 100 µM
same,TGI,[36],> 100 µM
same,TGI,[37],> 100 µM
same,TGI,[38],> 100 µM
same,TGI,[39],> 100 µM
same,TGI,[40],> 100 µM
same,TGI,[41],> 100 µM
same,TGI,[42],> 100 µM
same,TGI,[43],> 100 µM
same,TGI,[44],> 100 µM
same,TGI,[45],> 100 µM
same,TGI,[46],> 100 µM
same,TGI,[47],> 100 µM
same,TGI,[48],> 100 µM
same,TGI,[49],> 100 µM
same,TGI,[59],> 100 µM
same,TGI,[50],> 100 µM
same,TGI,[51],> 100 µM
same,TGI,[52],> 100 µM
same,TGI,[53],> 100 µM
same,TGI,[54],> 100 µM
same,TGI,[55],> 100 µM
same,TGI,[56],> 100 µM
same,TGI,[57],> 100 µM
same,TGI,[58],> 100 µM
